The text below walks through data of a melting point compilation (Tetko et al.; mined from patent text by program, amines drawn as free bases though some values may be those of a salt).

As a reminder, the melting point is the temperature of the solid-liquid transition.

The compound `COc1cc(COc2nn(-c3ccccc3)cc2/C=C\c2csc(C)n2)ccc1OCc1nc(-c2ccco2)oc1C` registered a melting point of 111 to 112 °C.

Compound `COC(=O)CCC(CNC(=O)C(C)(Cc1c[nH]c2ccccc12)NC(=O)OC1C2CC3CC(C2)CC1C3)c1ccccc1` (stereo not drawn) registered a melting point of 69 to 76 °C.

In the case of `CCCCCCCCCCCCCCOc1ccc(COC(=O)Oc2ccccc2)cc1`, the melting point fell in the range of 34 to 35 °C.

For `N#Cc1ccc(N2C(=O)NC(=Cc3ccccc3O)C2=O)c2ccccc12`, the melting point fell in the range of 146 to 149 °C.

As to `COC(=O)c1sccc1S(=O)(=O)NC(=O)Nc1nc(C)cc(OC(F)F)n1`, the melting point lay in the range of 178 to 179 °C.

Take `COCCOc1cc2ncc(C#N)c(C)c2cc1OC`: the melting point was 188 to 193 °C.

The compound `COC(=O)c1cc2cc(C[C@@H](C)NC[C@H](O)c3cccc(Cl)c3)ccc2n1CC1CC1` showed a melting point of 135 to 137 °C.

The compound `CCCNc1sc(C(N)=O)c2c1-c1c(cnn1C)CC2` yielded a melting point of 207 to 208 °C.

The compound `Oc1ccc(-c2cc3cc(O)ccc3o2)c(-c2ccccc2)c1` came in with a melting point of 167 to 170 °C.

Compound `O=C(O)CCN1C(=O)c2ccc([N+](=O)[O-])cc2C1=O` showed a melting point of 206 to 208 °C.

As to `CCCCOc1cc(CN)cc(S(N)(=O)=O)c1Cc1ccccc1`, the melting point lay within 176 to 179 °C.

The compound `CC(=O)Nc1nc(CCc2ccc(NC(=O)OC(C)(C)C)cc2)c(C(=O)NCc2ccccc2)s1` had a melting point of 184 to 185 °C.

On to `CNC(=O)Oc1ccc(NC(=O)COC)c(C)c1`, for which the melting point fell in the range of 130 to 132 °C.

`Nc1nc2ccccc2c2c1nc1n2C(C2CCOCC2)COC1` (stereo not drawn) yielded a melting point of 240 to 243 °C.

With `Fc1c2c(nc3cc(Cl)ccc13)CCCC2`, the melting point was in the range of 68 to 70 °C.

`CCOC(=O)[C@@H](O)[C@@H]1OC(=O)c2c1cc(OC)c(OC)c2OC` had a melting point of 111 to 112 °C.

On to `O[C@H](COc1cccc2cc(-c3nnc(-c4ccccc4)o3)oc12)CN1CCC(c2ccc3ccccc3c2)CC1`, for which the melting point was in the range of 78 to 80 °C.

Take `CCCc1[nH]cnc1C=O`: the melting point was in the range of 120 to 124 °C.

The compound `CC(Oc1ccc(Oc2ncc(C(F)(F)F)cc2Cl)cc1)C(=O)Nc1ccc(OC(F)(F)F)cc1` (stereo not drawn) came in with a melting point of 140 to 141 °C.

Compound `Cc1cc2c(cc1C1=NNC(=O)CC1C)NC(=O)C(C)O2` (stereo not drawn) came in with a melting point of 190 to 191 °C.

Consider `O=C(c1ccc(F)cc1)C1CCN(Cc2ccc3ccccc3c2)CC1`, for which the melting point lay within 131 to 134 °C.

The compound `CC(C)(C)OC(=O)N1C[C@@H]2[C@H](F)CCC(c3ccccc3)(c3ccccc3)[C@@H]2C1` returned a melting point of 200 °C.

For the compound `CS(=O)(=O)NC(=O)CCc1ccc(OC2CCc3cc(Cl)ccc32)cc1` (stereo not drawn), the melting point was 140 to 141 °C.

Turning to `CN1CCN(C)CCN2CCOCCOCCN(CC1)CCN(C)CCN(C)CC2`, the melting point lay within 32 to 33 °C.

Turning to `NC[C@@H]1CNc2cccc(-c3ccc(Cl)cc3Cl)c2O1`, the melting point is 163 °C.

Regarding `CCCC(=O)OCCOc1ccc2oc3cc(-c4nnn[nH]4)ccc3c(=O)c2c1`, the melting point is 207 to 209 °C.

The compound `Cn1c(=O)c2c(OCc3ccccc3)cccc2n2cnc(-c3noc(C4CC4)n3)c12` returned a melting point of 221 to 224 °C.

For the compound `COc1ccc2[nH]c(C(=O)C34CC5CC(CC(C5)C3)C4)cc2c1`, the melting point lay within 229 to 231 °C.

In the case of `CCOC(=O)N[C@@H]1Cc2ccccc2[C@H]1Nc1ccccc1C(=O)OC` (relative stereo), the melting point was 108 to 110 °C.

With `O=C(NCCc1c[nH]c2ccc([N+](=O)[O-])cc12)C(F)(F)F`, the melting point lay within 200 to 201 °C.

`O=C(NCc1ncc(C(F)(F)F)cc1Cl)c1ccccc1C(F)(F)F` had a melting point of 127 to 130 °C.

In turn, `O=C(O)[C@@H]1OC(c2ccccc2)=N[C@H]1c1ccccc1` displayed a melting point of 135 °C.

Regarding `COC(=O)CCCOc1cc([N+](=O)[O-])c(C=O)cc1OC`, the melting point was 75 °C.

`Cc1n[nH]c2c1C[C@@H]1CN(C)CC[C@H]1C2` (relative stereo) returned a melting point of 160 to 162 °C.

As for `CC(C)(C)OC(=O)Nc1ccc(-c2ccccc2F)cc1NC(=O)CC(=O)c1ccc(C#N)s1`, the melting point is 201 °C.

`CC(C)(C)OC(=O)N1CCC(c2ccc(Nc3nc4c(-c5cnn(-c6ccc(F)cc6)c5)cccn4n3)cc2)CC1` had a melting point of 176 to 178 °C.

Turning to `O=C1CCCc2ccn(-c3ccccc3)c21`, the melting point lay in the range of 66 to 68 °C.

`COc1cc2cc(C(=O)OC(C)(C)C)c(N)cc2cc1OCCN1CCOCC1`: the melting point lay in the range of 125 to 127 °C.

In turn, `CCCn1nc2c(-c3ccccc3)cccc2c1-c1ccc(O)cc1` had a melting point of 207 to 208 °C.

Compound `CCc1ccnc(C(=O)c2[nH]c3ccc(Cl)cc3c2CC(=O)O)c1Cl` displayed a melting point of 220 °C.

`CCOC(=O)c1cn(CCO)c2c(F)c(F)c(F)cc2c1=O`: the melting point was in the range of 175 to 177 °C.

Regarding `O=S(=O)(NCC1CCN(C[C@H]2COc3ccc(Cl)cc3O2)CC1)c1c(F)cccc1F`, the melting point lay within 122 to 124 °C.

For the compound `CNC(=O)C(Cc1ccc(OC)cc1)NC(=O)C(C)(CC(C)C)c1ccc(OC)cc1SCc1ccc(OC)cc1` (stereo not drawn), the melting point lay in the range of 150 to 158 °C.

`CN(C)c1cccc(-c2cnc3[nH]cc(C(=O)C(C)(C)C)c3n2)c1` returned a melting point of 223 to 228 °C.

As for `Nc1nc2ccccc2c2c1ncn2CC1(O)CCCCC1`, the melting point is above 250 °C.

`CN(CCO)c1nccc(-c2ccncc2)n1` displayed a melting point of 191 to 195 °C.

`COc1ccc2[nH]c(C(=O)O)c(-c3ccccc3F)c2c1` returned a melting point of 206 to 208 °C.

With `CN1CCN(Cc2ccc3n2Cc2ccccc2SC3c2ccccc2)CC1` (stereo not drawn), the melting point was in the range of 161 to 162 °C.

With `CCOC(=O)c1cn(-c2nc(SC(C)C)nc(C(F)(F)F)c2I)nc1C(F)(F)F`, the melting point fell in the range of 107 to 108 °C.

The compound `CCOP(=O)(OCC)c1cccc2c(P(=O)(OCC)OCC)cccc12` displayed a melting point of 169 to 171 °C.

With `CCC(CC)Cn1c(=O)c(=O)[nH]c2ccc(NC(C)=O)cc21`, the melting point is 168 to 170 °C.

The compound `N#CCNC(=O)C1(NC(=O)c2ccc(N3CCN(Cc4ccccc4)CC3)cc2)CCCCC1` came in with a melting point of 210 to 212 °C.

In turn, `CSc1ncccc1OCCO` returned a melting point of 80 °C.

`O=C1Nc2cc(Cl)ccc2Cn2nnnc21` registered a melting point of 256 to 259 °C.

Compound `Clc1nc(-c2cccnc2)sc1NC1CC1` registered a melting point of 56 to 60 °C.

In the case of `Cc1ccc(N2CCN(c3ccc4c(ncc5c4c(=O)c(C(=O)O)cn5C)c3F)CC2)cc1F`, the melting point is above 300 °C.

In turn, `COc1ccc(C2SCC(C(=O)O)N2C(=O)c2ccccc2)cc1` (stereo not drawn) yielded a melting point of 108 to 110 °C.

The compound `CC(=O)c1c(F)cccc1N1CCN(CCCCOc2ccc3c(n2)NC(=O)CC3)CC1` had a melting point of 64 °C.

In turn, `O=C(c1ccccc1)c1cc([N+](=O)[O-])ccc1NC1CC1` showed a melting point of 125 °C.

The compound `O=C1c2ccccc2-c2cc(O)cc3ccc(O)c1c23` had a melting point of 280 °C.

In the case of `CCCCc1ncc(/C=C(/C(=O)O)C(Cc2ccccc2)c2cccs2)n1Cc1ccccc1Cl` (stereo not drawn), the melting point lay within 200 to 202 °C.

As to `Nc1ccc(-c2ccnc(-c3ccc(C(F)(F)F)cc3)n2)cc1`, the melting point was 166 to 167 °C.

Consider `O=c1[nH]c2cccc(O)c2n1CCN1CCN(c2cccc(C(F)(F)F)c2)CC1`, for which the melting point worked out at 246 °C.

The compound `O=[N+]([O-])C1([N+](=O)[O-])CN(C(F)(F)F)C1` had a melting point of 70 to 71 °C.

For the compound `CC(C)c1nn(-c2ccc(C(F)(F)F)cn2)cc1CCCOc1cccc(OC(C)(C)C(=O)O)c1`, the melting point is 101 to 102 °C.

Consider `C=CCN(C(=O)n1oc(C)c(Cl)c1=O)c1ccc(Cl)cc1Cl`, for which the melting point fell in the range of 90.5 to 92 °C.

In turn, `CC(=O)N(O)C(C)c1ccc(-c2ccc(OCc3nc4ccccc4s3)cc2)cc1` (stereo not drawn) returned a melting point of 197 to 199 °C.

`COc1ccc(C(C)c2cc(O)ccc2OC)cc1` (stereo not drawn): the melting point was in the range of 81 to 83 °C.

On to `N#Cc1c(Cl)c2cccnc2[nH]c1=O`, for which the melting point worked out at 310 °C.

As to `COC(=O)C#CC(=O)c1ccc(C)cc1`, the melting point is 44 to 47 °C.

`Cc1oc(C)c(C(=O)O)c1C(=O)O` had a melting point of 232 to 235 °C.

Consider `O=C1Cc2c(Cl)cccc2Sc2ccc(F)cc21`, for which the melting point lay within 135 to 137 °C.

Take `BrC(Br)c1nc(C(Br)Br)nc(C(Br)Br)n1`: the melting point is 130 to 131 °C.

On to `CCCCCCCCCCCCCCCCCCOc1ccccc1NC(=O)CC(=O)C(C)(C)SCC`, for which the melting point lay in the range of 60 to 62 °C.

In the case of `CCn1c(CO)nc2cccnc21`, the melting point fell in the range of 117 to 121 °C.

Compound `Cc1c(NC(=O)c2ccc(CC(=O)C3CC3)cc2)ccc2cc(CN3CCCC3)cnc12` came in with a melting point of 200 to 201 °C.

`COCc1nc2c(NCc3c(C)cccc3C)cc(Br)cc2n1C` came in with a melting point of 143 to 145 °C.

For `COc1ccnc(CCc2nc3cc(-c4ccc(S(=O)(=O)N(C)c5ccc(Cl)cc5)cc4)cnc3[nH]2)c1`, the melting point lay in the range of 191 to 192 °C.

As to `NC(=O)c1cc(Cl)c([N+](=O)[O-])cc1[N+](=O)[O-]`, the melting point was in the range of 201 to 203 °C.

For the compound `COc1ccc(-c2cc3cc(F)c(F)cc3[nH]2)cc1NCc1cccc(C#N)c1`, the melting point lay in the range of 154 to 155 °C.

Regarding `CCCc1c(/C=C/c2ccccc2C)nc2ccc(C(=O)OC)cn2c1=O`, the melting point was 190 to 193 °C.

In the case of `O=C(Nc1ccc(Oc2ccnc(N3CCCC(O)C3)n2)c2ccccc12)c1cc(F)cc(N2CCOCC2)c1` (stereo not drawn), the melting point was 180 to 181 °C.

`COC(=O)c1ccc(Nc2nccc(-c3ccncc3)n2)cc1` came in with a melting point of 194 to 196 °C.

The compound `Cc1nn2c(c1C(N)=O)NCCC2` gave a melting point of 234 to 236 °C.

For `COc1cccc(N2Sc3ccccc3CC2=O)c1OCc1ccccc1`, the melting point was in the range of 151 to 153 °C.

The compound `CC(C)[C@@H](C(=O)N1C(=O)O[C@@H](c2ccccc2)[C@H]1C)[C@@H](O)[C@@H]1OC(C)(C)N(C(=O)OC(C)(C)C)[C@H]1CC1CCCCC1` gave a melting point of 97 °C.

Turning to `CCN(CC)CCCN1CCC(O)(c2ccccc2)C(C(=O)c2ccccc2)C1` (stereo not drawn), the melting point was in the range of 76 to 78 °C.

The compound `CCc1c(-c2ccc(N(C)C)nn2)ssc1=S` yielded a melting point of 160 °C.
